In patent US20190059368A1, “3,5-DIMETHOXYSTILBENE ANALOGS AND USES THEREOF” (The United States of America, as represented by the …, priority 2017, published 2019):
In brackets after ≈: the same amount, converted by molar mass.

Columns and labels:
[1] = system: Cryptococcus neoformans ATCC 90113; test: Antimicrobial microplate assay (modified CLSI); format: cell-based; details: Cr. neoformans
Method: All organisms were obtained from the American Type Culture Collection (ATCC; Manassas, Va., USA) and included the fungi Cryptococcus neoformans ATCC 90113 and the bacteria Staphylococcus aureus ATCC 29213, methicillin-resistant S. aureus ATCC 33591 (MRSA), and Mycobacterium intracellulare ATCC 23068. All organisms were tested using modified versions of the CLSI (formerly NCCLS) methods. For all organisms excluding My. intracellulare, optical density was used to monitor growth. Medium supplemented with 5% AlamarBlue® (BioSource International, Camarillo, Calif., USA) was utilized for growth detection of My. intracellulare. Samples (dissolved in DMSO) were serially diluted in 20% DMSO/saline and transferred (10 μl) in duplicate to 96-well flat-bottom microplates. Inocula were prepared by correcting the OD630 of microbe suspensions in Sabouraud Dextrose for Cr. neoformans, cation-adjusted Mueller-Hinton (Difco) at pH 7.3 for Staphylococcus spp., and 5% AlamarBlue® (BioSource International) in Middlebrook 7H9 broth with OADC enrichment, pH=7.0 for My. intracellulare, to afford an assay volume of 200 μl and final target inocula of: Cr. neoformans.: b 1.5×10^3, My. intracellulare: 2.0×10^6, and Staphylococcus spp.,: 5.0×10^5 CFU/ml. Final sample test concentrations were 1/100th the DMSO stock concentration. Drug controls (Ciprofloxacin (ICN Biomedicals, Ohio, USA) for bacteria and Amphotericin B (ICN Biomedicals) for fungi) were included in each assay. All organisms were read at either 530 nm using the Biotek Powerwave XS plate reader (Bio-Tek Instruments, VT) or 544ex1590em (My. intracellulare) using the Polarstar Galaxy Plate Reader (BMG LabTechnologies, Germany) before and after incubation: Staphylococcus spp. at 35° C. for 16-20 h, Cr. neoformans at 35° C. for 70-74 h, and My. intracellulare at 37° C. and 10% CO2 for 70-74 h. IC50 Values (concentrations that afford 50% inhibition relative to controls) werecalculated using XLfit 4.2 software (IDBS, Alameda, Calif.) using fit model 201.

Colletotrichum acutatum = test: Direct bioautography, antifungal; format: cell-based; details: 2 mM, 4 μl spotted (2 μl of the positive controls), average of 2 assays; for zone of inhibition at 2000 µM: Colletotrichum acutatum, read-out: zones of inhibition
Method: (§1) The analogs were tested for activity against Colletotrichum acutatum SIMMONDS, C. fragariae BROOKS, and C. gloeosporioides (PENZ) PENZ & SACC. in Penz., using a direct bioautography method as previously described by Tabanca et al. (Nat. Prod. Commun. 2008, 3, 1073) and Wang, et al. (J. Agric. Food Chem. 2013, 61, 4551). Technical grade commercial fungicide standards benomyl, cyprodinil, azoxystrobin, and captan were used at 0.9-1.61 μg/μl concentrations in 95% EtOH. After sample application, each TLC plate was subsequently sprayed with a spore suspension (3.0×10^5 spores/ml) of the fungus of interest and incubated in a moisture chamber for 4 days at 26° C. with a 12 hour photoperiod. Clear zones of fungal growth inhibition on the TLC plate indicated the presence of antifungal constituents in each extract or pure compound. The test compounds were prepared at 2 mM soln. in 95% EtOH, and 4 μl were spotted on the plates (2 μl of the positive controls).

C. fragariae = test: Direct bioautography, antifungal; format: cell-based, Colletotrichum fragariae; details: 2 mM, 4 μl spotted (2 μl of the positive controls), average of 2 assays; for zone of inhibition at 2000 µM: Colletotrichum fragariae, read-out: zones of inhibition
Method: as §1

C. gloeosporioides = test: Direct bioautography, antifungal; format: cell-based, Colletotrichum gloeosporioides; details: 2 mM, 4 μl spotted (2 μl of the positive controls), average of 2 assays; for zone of inhibition at 2000 µM: Colletotrichum gloeosporioides, read-out: zones of inhibition
Method: as §1

[2] = system: Meloidogyne incognita second-stage juveniles (J2); test: M. incognita assay with previously hatched J2 immersed in test solutions; details: in vivo
Method: Two types of assays were used to investigate activity against M. incognita: i) eggs were immersed in solutions of the test compounds, and ii) second-stage juveniles (J2) previously hatched from eggs were immersed in the test solutions. These assays were conducted with procedures similar to those in Meyer, et al. (J. Nematol. 2006, 38, 333). M. incognita race 1 (originally isolated in 2013 from a field in Maryland) was grown in the greenhouse on pepper (Capsicum annuum L.) cultivar PA-136. Egg masses were hand-picked from plant roots, rinsed three times with sterile distilled H2O, and agitated in 0.6% NaClO for 3.5 minutes to separate and surface-sterilize eggs. The eggs were rinsed in sterile distilled H2O and stored overnight at 4° C. before use in egg immersion assays. To collect J2 for direct immersion into the test compounds, sterilized eggs were placed into a hatching chamber made with a Spectra/Mesh Nylon Filter (openings 25 μm in diameter; Spectrum Laboratories Inc., Rancho Dominguez, Calif., USA) in an autoclaved dish. J2 that passed through the filter within 3 days were used immediately for assays.
The assays were conducted in 96-well polystyrene plates. For the assays with immersed eggs, each well received approximately 50 eggs in 35 μl of sterile deionized water (SDW). For assays with previously hatched J2, a suspension of approximately 50 J2 in 35 μl of SDW was placed into each well. Each well then received 165 μl of treatment or control. The solvent used to dissolve the test chemicals was a 1:1:1 mixture referred to herein as CTD: equal parts Cremophor® EL Castor Oil (BASF Corporation, Vandalia, Ill., USA), Tween 80® (Sigma-Aldrich, St. Louis, Mo., USA), and DMSO (Sigma-Aldrich). A high and low rate of each compound was tested. After addition to the nematode suspensions in the wells, the low and high rates were 83.3 and 166.7 μg/ml of each test compound, respectively, dissolved in 0.5% and 1.0% of each of the three combined solvents. Controls were CTD equivalent to the low and high rates, and SDW. Because of the large number of treatments, the test compounds were divided into two groups for the egg immersion assays. The compounds tested in the egg immersion Assay 1 were 3, 6a, 6e, 6f, 6g, 6n, 7a, 7c, 7e, 7f, 7n, 11, 12, 16, and 17. The compounds tested in the egg immersion Assay 2 were 6b, 6h, 6i, 6j, 6k, 6l , 7b, 7g, 7h, 7i, 7j, 7k, 7l, and 7m (data not shown). Test compounds used for assays with previously hatched J2 were selected based on results with the egg assays. […]
Each polystyrene culture plate was covered with a plastic adhesive sheet (Excel Scientific, Inc., Victorville, Calif., USA) and incubated at 25° C. […] In egg immersion assays, total numbers of hatched J2, and numbers of mobile and immobile J2, were counted after 2 and 7 days incubation in the test compounds. In the first assay with previously hatched J2, the numbers of mobile and immobile J2 were counted after 1 and 2 days incubation, the treatments removed and replaced with a SDW rinse, and 2 days later the mobile vs. immobile J2 counted again. […]
Data from the M. incognita assays were analyzed with the statistical package JMP 11.2.0 (SAS Institute, Cary, N.C., USA). Differences among numbers of hatched J2 in each treatment, and among percentage of mobile J2 per treatment (number mobile J2/total J2×100), were determined by the ANOVA, and means were compared using Tukey Kramer's adjustment for multiple comparisons (P<0.05). […]

Compound	zone of inhibition at 2000 µM (Colletotrichum acutatum) [mm]	zone of inhibition at 2000 µM (C. fragariae) [mm]	zone of inhibition at 2000 µM (C. gloeosporioides) [mm]	other results
C[C@@H]1[C@H](O)[C@@H](C)/C=C/C=C/C=C/C=C/C=C/C=C/C=C/[C@H](O[C@@H]2O[C@H](C)[C@@H](O)[C@H](N)[C@@H]2O)C[C@@H]2O[C@](O)(C[C@@H](O)C[C@@H](O)[C@H](O)CC[C@@H](O)C[C@@H](O)CC(=O)O[C@H]1C)C[C@H](O)[C@H]2C(=O)O [Amphotericin B, reference compound]	–	–	–	IC50 [1]: 698 nM; MIC [1]: 1.353 µM (≈ 1.25 µg/mL)
CO/C=C(/C(=O)OC)c1ccccc1Oc1cc(Oc2ccccc2C#N)ncn1 [Azoxystrobin, azoxystrobin]	–	–	–	zones of inhibition (Colletotrichum acutatum): 15 mm; zones of inhibition (C. fragariae): 17.5 mm; zones of inhibition (C. gloeosporioides): 17.5 mm
CCCCNC(=O)n1c(NC(=O)OC)nc2ccccc21 [Benomyl, benomyl]	17	20	20	–
O=C1C2CC=CCC2C(=O)N1SC(Cl)(Cl)Cl (stereo not drawn) [Captan, captan]	11.5	18.5	18.5	–
COc1cccc(/C=C/c2cc(OC)c(C)c(OC)c2)c1 [Compound 6b, (E)-1,3-dimethoxy-5-(3-methoxystyryl)-2-methylbenzene]	–	–	–	effect on mobility of J2 previously hatched in water and immersed directly (in words) [2]: only 6g and 7k had an effect on J2 mobility
